Assay results published in PubChem BioAssay (NCI).
Values joined by “and” are separate entries in the source; they are usually repeats but may differ in a detail not shown here. Equal entries are not always repeated.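 Values below derive from 48-hour exposures of cells grown in 96-well plates, with endpoints linearly interpolated between the two concentrations bracketing the appropriate inhibition level. At the GI50, growth is halved. The concentration for full growth arrest is given as TGI.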

Columns and labels:
Experiment in all cases: NCI anticancer screen, dose series, 48 h
A549 NSCLC = tested on: A549 NSCLC
DLD-1 colon = tested on: DLD-1 colon
DMS 273 small cell lung = tested on: DMS 273 small cell lung
EKVX NSCLC = tested on: EKVX NSCLC
HCC-2998 colon = tested on: HCC-2998 colon
HT29 colon = tested on: HT29 colon
M14 melanoma = tested on: M14 melanoma
NCI-H460 lung = tested on: NCI-H460 lung
SF-539 CNS = tested on: SF-539 CNS
TK-10 renal = tested on: TK-10 renal

SMILES | TGI (A549 NSCLC) | TGI (DLD-1 colon) | TGI (DMS 273 small cell lung) | TGI (EKVX NSCLC) | TGI (HCC-2998 colon) | TGI (HT29 colon) | TGI (M14 melanoma) | TGI (NCI-H460 lung) | TGI (SF-539 CNS) | TGI (TK-10 renal) | GI50 (A549 NSCLC) | GI50 (DLD-1 colon) | GI50 (DMS 273 small cell lung) | GI50 (EKVX NSCLC) | GI50 (HCC-2998 colon) | GI50 (HT29 colon) | GI50 (M14 melanoma) | GI50 (NCI-H460 lung) | GI50 (SF-539 CNS) | GI50 (TK-10 renal)
CC(=O)OC1C(O)C(C)OC(OC2C(OC(=O)C3CCC4C(C3)OC3(CC(OC(=O)/C=C/c5ccccc5)C(C)CO3)C43CO3)OC(C)C(O)C2OC(C)=O)C1O (centres undefined) | 0.333 µM | > 1.5 µM | 0.111 µM | 0.074 µM | 0.0148 µM | 0.0473 µM | 0.0293 µM | 0.141 µM | 0.0285 µM | 0.225 µM |  |  |  |  |  |  |  |  |  | 
Cc1[nH]c(=O)n2c(C)nnc2c1C(=O)O |  | > 100 µM |  | > 100 µM |  | > 100 µM | > 100 µM | > 100 µM | > 100 µM | > 100 µM |  |  |  |  |  |  |  |  |  | 
CC(C)(C)N1CC1CNC(=O)C(=O)NCC1CN1C(C)(C)C (centres undefined) | 21.1 µM |  | 0.517 µM | > 31.1 µM | 14.8 µM | 19.1 µM | 16.6 µM | 24.7 µM | 13.7 µM | > 100 µM |  |  |  |  |  |  |  |  |  | 
CC1=C2CC[C@@]3(C)C(=CCC3O)C2(C)CCC1=O (some centres undefined) | > 100 µM | > 100 µM | > 100 µM | > 100 µM | > 100 µM | > 100 µM | > 100 µM | > 100 µM | > 100 µM | > 100 µM |  |  |  |  |  |  |  |  |  | 
c1cc2c(cc1C1OCC3C(c4ccc5c(c4)OCO5)OCC13)OCO2 (centres undefined) | > 100 µM | > 100 µM |  | > 100 µM | > 100 µM | > 100 µM | > 100 µM | > 100 µM | > 100 µM | > 100 µM |  |  |  |  |  |  |  |  |  | 
CC[O-].CC[O-].O=C1C=C([O-])C(=O)c2ccccc21.O=C1C=C([O-])C(=O)c2ccccc21.[Ti+4] | > 100 µM | > 100 µM | > 100 µM | > 100 µM | > 100 µM | > 100 µM | > 100 µM | > 92.9 µM | > 100 µM | > 100 µM | 26000 nM | > 100 µM | > 63.5 µM | > 100000 nM | 46100 nM | 22400 nM | 8.52 µM | 7760 nM | 100000 nM | > 67.7 µM
c1ccc2cc(C3NCCc4[nH]cnc43)ccc2c1 (centres undefined) | > 100 µM | > 100 µM | > 100 µM |  | > 100 µM | > 100 µM | > 100 µM | > 100 µM | > 100 µM | 82.1 µM |  |  |  |  |  |  |  |  |  | 
CC(=O)OC(C(=O)[O][Ge]([CH3])([CH3])[CH3])c1ccccc1 (centres undefined) | > 100 µM | > 100 µM |  | > 100 µM | > 100 µM | > 100 µM | > 100 µM | > 100 µM | > 100 µM | > 100 µM | > 100000 nM | > 100 µM |  | > 100000 nM | > 100000 nM | > 100000 nM | > 100 µM | > 100000 nM | > 100000 nM | > 100 µM
CCOC(=O)CCc1c(C)c2c(OC)cc(OC)cc2oc1=O | > 100 µM | > 100 µM | > 100 µM | > 100 µM | > 100 µM | > 100 µM | > 100 µM | > 100 µM | > 100 µM | > 100 µM |  |  |  |  |  |  |  |  |  | 
C/C=C1\Oc2ccc(OC)cc2S1(=O)=O | > 100 µM | > 100 µM | > 100 µM | > 100 µM | > 100 µM | > 100 µM | > 100 µM | > 100 µM |  | > 100 µM |  |  |  |  |  |  |  |  |  | 
CCCCCCCCCCCCC(O)C1CCC(C(O)CCCCC(O)CCCCCC2CC(CC(C)=O)C(=O)O2)O1 (centres undefined) | 18.7 µM | 21 µM | 13 µM | 4.11 µM and 20.8 µM | 16.3 µM | 2.65 µM and 15.4 µM | 3.33 µM and 22.2 µM | > 43.8 µM | 21.1 µM | 14.1 µM | 1550 nM |  |  | 1080 nM |  | 1370 nM | 1.66 µM |  | 2360 nM | 2.4 µM
COc1ccc(OC(=O)N2C/C(=C\c3ccccc3)C(=O)/C(=C/c3ccccc3)C2)cc1 | 38.9 µM | 5.29 µM | 6.28 µM | 58.3 µM | 8.76 µM | 3.73 µM | 7.97 µM | 13.7 µM | 22.5 µM | 44 µM |  |  |  |  |  |  |  |  |  | 
O=C(c1ccccc1)n1cc(/C=C/[N+](=O)[O-])c2ccccc21 | > 100 µM | 33.5 µM | 55.1 µM | > 100 µM |  | > 100 µM | 41 µM | 43.3 µM | 46.4 µM | > 100 µM |  |  |  |  |  |  |  |  |  | 
O=c1cccccc1[O-].O=c1cccccc1[O-].O=c1cccccc1[O-].[Nd+3] | > 100 µM | > 100 µM | > 100 µM | > 100 µM | > 100 µM | > 100 µM | 87 µM | > 100 µM | 74.9 µM | > 100 µM |  | 36.4 µM | 14.3 µM |  |  |  |  |  | 19700 nM | 
COc1ccccc1/C=C1\CCC(Cc2ccccc2)(CN(C)C)C1=O (centres undefined) | > 100 µM | > 80.4 µM | 2.48 µM | 34.7 µM | 24.3 µM | 5.55 µM | 34.9 µM | 12.8 µM | 5.89 µM | > 77.7 µM |  |  |  |  |  |  |  |  |  | 
COC(=O)c1cc(O)ccc1O | > 100 µM |  | > 100 µM | > 100 µM | > 100 µM | > 100 µM | > 100 µM | > 100 µM | > 100 µM | > 100 µM |  |  |  |  |  |  |  |  |  | 
OC1CC(O)O[C@H](c2ccccc2)C1 (some centres undefined) | > 100 µM | > 100 µM | > 100 µM | > 100 µM | > 100 µM | > 100 µM | > 100 µM | > 100 µM | > 100 µM | > 100 µM |  |  |  |  |  |  |  |  |  | 
Cc1ccccc1N(CCC#N)C1=NN(C(=O)CC(=O)Nc2ccc(Cl)cc2)C(c2ccccc2)C1 (centres undefined) | > 100 µM | > 100 µM | > 100 µM | > 100 µM | > 100 µM | > 100 µM | > 100 µM | > 100 µM | > 100 µM |  |  |  |  |  |  |  |  |  |  | 
CCCCCCCCCN=C(N)c1ccc(N2CCN(c3ccc(C(N)=NCCCCCCCCC)cc3)CC2)cc1 | 10.5 µM |  |  | 7.72 µM | 6.14 µM | 7.4 µM | > 50 µM | 5.13 µM | 4.48 µM | 14.7 µM | 1570 nM |  |  | 1950 nM | 1820 nM | 1300 nM | 3.09 µM | 1610 nM | 2000 nM | 4.3 µM
CC1(C)CC[C@]23CC[C@]4(C)[C@H](CC[C@@H]5[C@@]6(C)CCCNC(C)(C)[C@@H]6CC[C@]54C)[C@H]2[C@H]1OC3 | 3.43 µM |  |  | 3.37 µM | 2.97 µM | 3.63 µM | 3.31 µM | 2.2 µM | 3.07 µM | 3.61 µM | 1810 nM |  |  | 1680 nM | 1540 nM | 1780 nM | 1.77 µM | 646 nM | 1640 nM | 1.89 µM
